We go through 12 molecules from US9321773B2, “Compounds” (Respivert Ltd, priority 2009, dated 2016).

In data set [1] the target is recombinant PI3 kinase α (Homo sapiens (Human), UniProt P42336). Kind of data set: Enzyme Inhibition Assay (HTRF PI3K enzyme assay, TR-FRET). The class given is biochemical. Conditions: activity range; read-out: PI3 Kinase Inhibition IC50 values at stated Isozyme α. The text has this: (§1) PI3 kinases catalyse the phosphorylation of phosphatidylinositol 4,5-biphosphate (PIP2) to phosphatidylinositol 3,4,5-triphosphate (PIP3) in the presence of ATP and Mg^2+ ions. The PIP3 product can be detected by displacement of biotin-PIP3 from energy transfer complexes consisting of europium labelled anti-GST monoclonal antibody, a GST-tagged Pleckstrin homology (PH) domain, biotinylated PIP3 and streptavidin-allophycocyanin (APC) by the time-resolved fluorescence resonance energy transfer (TR-FRET) (HTRF® PI3K enzyme assay, Millipore). […] The PIP3 product formed by PI3K activity displaces biotin-PIP3 from the complex and results in a loss of energy transfer (decreasing signal).
(§2) The compound to be tested was added, at the desired final concentrations, to a mixture of PIP2 substrate and recombinant PI3 kinase α, δ or γ enzymes (Millipore), and the mixture incubated for 2 hr at RT. […] A stopping solution containing biotinylated PIP3 and the detection mix containing the GST tagged GRP1 pleckstrin homology (PH) domain and fluorophores were then added and the mixture was incubated at RT for 15-18 hr, prior to detection in a fluorescence microplate reader (Varioskan® Flash, ThermoFisher Scientific).

Data set [2] relates to H2O2 induced pAkt in D-U937 cells. Kind of data set: PI3Kδ Cell Based Assay (H2O2 induced pAkt). Conditions: Homo sapiens. The protocol: As a means of assessing PI3K 6 activation in response to stimuli, the phosphorylation status of the protein, Akt, a downstream product of PI3K6, signaling was determined. Human monocytic cells (U937 cells), were differentiated to macrophage-type cells by incubation with phorbol myristate acetate (PMA; 100 ng/mL) for 48 to 72 hr. […] The cells were washed with buffer (PBS containing 0.1% Triton X-100) and were incubated with blocking solution (1% BSA in PBS) for 1 hr and were then re-washed with buffer and incubated overnight with either anti-pAkt antibody or anti-pan-Akt antibody (both from Cell Signaling Technology). […] This reaction was stopped by addition of 100 μL of 1N H2SO4 solution. […] The ratio of pAkt signal to total Akt signal was used to quantitate the extent of PI3K δ activation. […] The IC50 values were calculated from the concentration-response curves generated by the serial dilutions of the test compounds (Table 3 and Table 4).

The subject of data set [3] is PMA-differentiated U937 cells. Kind of data set: MTT Assay (cell viability). The class given is cell-based, Human. Conditions: percentage loss of cell viability; for Cell Viability MTT Assay in D-U937 cells at 4 hr: 4 hr in 5% FCS; for Cell Viability MTT Assay in D-U937 cells at 24 hr: 24 hr in 10% FCS. The protocol:
PMA-differentiated U937 cells were pre-incubated with compound for 4 hr in 5% FCS or 10% FCS for 24 hr. The supernatant was replaced with 200 μL of new media and 10 μL of MTT stock solution (5 mg/ml) added to each well. After 1 hr incubation, the media were removed, 200 μL of DMSO added to each well and the plates were shaken lightly for 1 hr prior to reading the absorbance at 550 nm. The percentage loss of cell viability was calculated for each well relative to vehicle (0.5% DMSO)-treatment (Table 3).

Data set [4] deals with recombinant PI3 kinase γ (Homo sapiens (Human), UniProt P48736). Kind of data set: Enzyme Inhibition Assay (HTRF PI3K enzyme assay, TR-FRET). The class given is biochemical. Conditions: activity range; read-out: PI3 Kinase Inhibition IC50 values at stated Isozyme γ.
Source text: as §1, §2

Data set [5] concerns the target recombinant PI3 kinase δ (Homo sapiens (Human), UniProt O00329). The data set is described as above. The class given is biochemical. The conditions noted are these: activity range; read-out: PI3 Kinase Inhibition IC50 values at stated Isozyme δ.
Source text: as §1, §2

Where [6] appears, read: dU937, activity range, D-U937 cells, read-out: Cellular Activity IC50 values (H2O2 induced pAkt D-U937 Cells).

Read-outs that look alike come from different tables or passages of the source.

recombinant PI3 kinase δ, sequence (O00329 whole entry): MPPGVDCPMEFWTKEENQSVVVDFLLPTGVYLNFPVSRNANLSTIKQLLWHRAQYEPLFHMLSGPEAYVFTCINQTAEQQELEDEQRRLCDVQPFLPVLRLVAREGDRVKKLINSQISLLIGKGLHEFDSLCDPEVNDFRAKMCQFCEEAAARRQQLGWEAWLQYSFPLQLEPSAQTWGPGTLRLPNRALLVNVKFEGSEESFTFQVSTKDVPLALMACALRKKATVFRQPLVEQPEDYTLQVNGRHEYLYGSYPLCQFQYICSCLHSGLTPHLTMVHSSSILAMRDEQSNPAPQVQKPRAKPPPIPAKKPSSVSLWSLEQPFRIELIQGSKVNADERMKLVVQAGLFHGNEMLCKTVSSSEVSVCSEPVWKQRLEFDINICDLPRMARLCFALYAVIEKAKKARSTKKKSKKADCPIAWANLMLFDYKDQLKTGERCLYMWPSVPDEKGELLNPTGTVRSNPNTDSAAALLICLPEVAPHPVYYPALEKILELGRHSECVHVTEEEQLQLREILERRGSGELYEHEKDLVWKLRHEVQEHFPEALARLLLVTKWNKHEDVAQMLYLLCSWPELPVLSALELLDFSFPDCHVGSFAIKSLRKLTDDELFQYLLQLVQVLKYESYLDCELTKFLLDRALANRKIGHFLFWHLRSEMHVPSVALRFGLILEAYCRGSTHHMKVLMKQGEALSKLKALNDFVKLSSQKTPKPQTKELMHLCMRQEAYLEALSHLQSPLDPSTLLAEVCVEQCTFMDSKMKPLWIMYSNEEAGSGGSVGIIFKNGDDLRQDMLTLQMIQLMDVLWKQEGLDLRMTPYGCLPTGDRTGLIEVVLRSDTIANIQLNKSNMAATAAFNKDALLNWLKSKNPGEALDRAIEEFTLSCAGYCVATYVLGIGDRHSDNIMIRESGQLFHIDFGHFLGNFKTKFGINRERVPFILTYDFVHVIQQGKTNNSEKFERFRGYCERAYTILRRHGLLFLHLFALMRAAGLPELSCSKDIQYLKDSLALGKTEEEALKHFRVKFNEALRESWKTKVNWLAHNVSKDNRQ
recombinant PI3 kinase δ, sequence (P27986 whole entry partner): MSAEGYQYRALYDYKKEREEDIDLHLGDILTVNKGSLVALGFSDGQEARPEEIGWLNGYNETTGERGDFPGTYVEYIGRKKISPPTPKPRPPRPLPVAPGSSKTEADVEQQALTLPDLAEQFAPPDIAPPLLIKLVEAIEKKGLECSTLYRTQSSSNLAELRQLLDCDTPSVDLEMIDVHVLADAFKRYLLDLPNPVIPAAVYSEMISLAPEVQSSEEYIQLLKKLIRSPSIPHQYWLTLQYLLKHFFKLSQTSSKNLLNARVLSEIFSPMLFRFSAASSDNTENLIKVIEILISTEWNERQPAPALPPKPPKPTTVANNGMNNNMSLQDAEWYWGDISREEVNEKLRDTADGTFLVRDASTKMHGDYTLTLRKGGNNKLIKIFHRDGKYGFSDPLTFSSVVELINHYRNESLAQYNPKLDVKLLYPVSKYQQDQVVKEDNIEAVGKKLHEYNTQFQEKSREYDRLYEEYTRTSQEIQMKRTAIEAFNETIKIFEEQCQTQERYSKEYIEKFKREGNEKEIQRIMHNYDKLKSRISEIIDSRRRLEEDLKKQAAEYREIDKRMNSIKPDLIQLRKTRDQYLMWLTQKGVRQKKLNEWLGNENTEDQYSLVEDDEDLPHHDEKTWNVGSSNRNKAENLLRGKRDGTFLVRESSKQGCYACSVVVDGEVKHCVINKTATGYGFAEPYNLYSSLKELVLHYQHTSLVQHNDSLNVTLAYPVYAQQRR
recombinant PI3 kinase γ, sequence (P48736 whole entry): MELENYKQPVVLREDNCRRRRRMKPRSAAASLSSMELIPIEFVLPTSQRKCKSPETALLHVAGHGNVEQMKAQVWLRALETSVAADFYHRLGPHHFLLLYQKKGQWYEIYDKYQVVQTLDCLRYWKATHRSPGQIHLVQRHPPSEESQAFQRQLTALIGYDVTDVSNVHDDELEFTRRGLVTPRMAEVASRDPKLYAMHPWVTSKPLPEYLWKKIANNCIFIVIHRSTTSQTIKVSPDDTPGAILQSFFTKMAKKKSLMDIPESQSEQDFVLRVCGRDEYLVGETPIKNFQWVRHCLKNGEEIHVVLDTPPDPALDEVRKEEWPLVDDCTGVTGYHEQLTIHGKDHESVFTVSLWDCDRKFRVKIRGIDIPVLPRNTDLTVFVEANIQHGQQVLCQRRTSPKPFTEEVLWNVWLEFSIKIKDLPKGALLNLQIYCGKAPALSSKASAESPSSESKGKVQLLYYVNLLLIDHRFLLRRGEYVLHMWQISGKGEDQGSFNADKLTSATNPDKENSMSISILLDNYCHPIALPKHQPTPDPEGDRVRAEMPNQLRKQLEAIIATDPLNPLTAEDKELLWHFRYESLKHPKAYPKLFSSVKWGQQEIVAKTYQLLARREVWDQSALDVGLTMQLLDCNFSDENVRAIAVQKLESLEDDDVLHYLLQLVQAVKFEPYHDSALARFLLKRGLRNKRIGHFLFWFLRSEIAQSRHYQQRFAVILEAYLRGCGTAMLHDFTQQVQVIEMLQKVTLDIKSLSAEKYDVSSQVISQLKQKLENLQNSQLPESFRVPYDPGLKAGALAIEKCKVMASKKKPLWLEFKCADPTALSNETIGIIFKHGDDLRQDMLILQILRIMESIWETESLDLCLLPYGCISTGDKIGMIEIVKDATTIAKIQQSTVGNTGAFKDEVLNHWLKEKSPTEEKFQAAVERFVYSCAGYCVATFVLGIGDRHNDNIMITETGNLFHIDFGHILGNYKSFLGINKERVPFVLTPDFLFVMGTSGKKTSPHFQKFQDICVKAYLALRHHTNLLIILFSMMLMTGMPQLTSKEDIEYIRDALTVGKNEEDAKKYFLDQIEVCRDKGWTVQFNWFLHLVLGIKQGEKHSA
recombinant PI3 kinase α, sequence (P42336 whole entry): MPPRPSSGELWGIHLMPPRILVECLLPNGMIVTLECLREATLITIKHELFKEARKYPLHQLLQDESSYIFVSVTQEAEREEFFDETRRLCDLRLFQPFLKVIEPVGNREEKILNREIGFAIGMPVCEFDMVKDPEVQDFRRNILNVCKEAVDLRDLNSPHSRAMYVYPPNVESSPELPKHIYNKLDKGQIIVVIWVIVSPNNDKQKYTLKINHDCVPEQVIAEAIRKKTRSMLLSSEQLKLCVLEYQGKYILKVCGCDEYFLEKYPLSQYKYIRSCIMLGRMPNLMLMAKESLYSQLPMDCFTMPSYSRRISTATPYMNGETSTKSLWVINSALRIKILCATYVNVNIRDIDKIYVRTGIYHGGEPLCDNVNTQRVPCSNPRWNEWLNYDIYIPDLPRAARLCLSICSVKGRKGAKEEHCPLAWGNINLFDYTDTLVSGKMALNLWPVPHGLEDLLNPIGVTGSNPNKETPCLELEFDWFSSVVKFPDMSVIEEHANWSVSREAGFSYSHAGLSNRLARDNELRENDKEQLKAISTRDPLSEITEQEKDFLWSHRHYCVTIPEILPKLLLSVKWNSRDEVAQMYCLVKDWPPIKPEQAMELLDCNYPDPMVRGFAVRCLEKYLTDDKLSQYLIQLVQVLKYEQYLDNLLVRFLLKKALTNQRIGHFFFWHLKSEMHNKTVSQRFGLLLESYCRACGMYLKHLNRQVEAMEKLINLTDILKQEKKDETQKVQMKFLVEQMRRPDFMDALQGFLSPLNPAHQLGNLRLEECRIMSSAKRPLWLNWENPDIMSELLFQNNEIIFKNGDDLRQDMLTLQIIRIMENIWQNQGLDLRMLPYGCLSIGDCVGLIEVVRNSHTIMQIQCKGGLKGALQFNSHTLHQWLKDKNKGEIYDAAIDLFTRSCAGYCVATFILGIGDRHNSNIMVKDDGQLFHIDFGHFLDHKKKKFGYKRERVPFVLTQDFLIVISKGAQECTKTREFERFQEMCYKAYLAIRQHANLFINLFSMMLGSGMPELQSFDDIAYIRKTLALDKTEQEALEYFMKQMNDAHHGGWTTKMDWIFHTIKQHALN
recombinant PI3 kinase α, sequence (P27986 whole entry partner): as the sequence (P27986 whole entry partner) above

Turning to `COCCOCCOCC#Cc1cccc2nc(Cn3nc(-c4cccc(O)c4)c4c(N)ncnc43)n(Cc3ccccc3Cl)c(=O)c12` [Example 2, 2-((4-Amino-3-(3-hydroxyphenyl)-1H-pyrazolo[3,4-d]pyrimidin-1-yl)methyl)-3-(2-chlorobenzyl)-5-(3-(2-(2-methoxyethoxy)ethoxy)prop-1-yn-1-yl)quinazolin-4(3H)-one], the IC50 is greater than 1 µM in data set [1] and less than 0.01 µM in data set [2] (setting [6]). In addition, the “Cell Viability MTT Assay in D-U937 cells at 4 hr” value in data set [3] is recorded as “− (− <30%)”. Besides, in data set [3], the “Cell Viability MTT Assay in D-U937 cells at 24 hr” value was “− (− <30%)”.
For the molecule `Nc1ncnc2c1c(-c1cccc(O)c1)nn2Cc1nc2cccc(C#CCCCC(=O)N3CCOCC3)c2c(=O)n1Cc1ccccc1Cl` [Example 3, 2-((4-Amino-3-(3-hydroxyphenyl)-1H-pyrazolo[3,4-d]pyrimidin-1-yl)methyl)-3-(2-chlorobenzyl)-5-(6-morpholino-6-oxohex-1-yn-1-yl)quinazolin-4(3H)-one], the IC50 in data set [1] is less than 0.05 µM; in data set [4], less than 0.05 µM; in data set [5], less than 0.05 µM; in data set [2] (setting [6]), less than 0.01 µM. Besides, the “Cell Viability MTT Assay in D-U937 cells at 4 hr” value in data set [3] is “− (− <30%)”. In addition, the “Cell Viability MTT Assay in D-U937 cells at 24 hr” value in data set [3] is on record as “− (− <30%)”.
Regarding `N#Cc1cccc(Cn2c(Cn3nc(-c4cccc(O)c4)c4c(N)ncnc43)nc3cccc(C#CCOCCOCCO)c3c2=O)c1` [Example 6, 3-((2-((4-Amino-3-(3-hydroxyphenyl)-1H-pyrazolo[3,4-d]pyrimidin-1-yl)methyl)-5-(3-(2-(2-hydroxyethoxy)ethoxy)prop-1-yn-1-yl)-4-oxoquinazolin-3(4H)-yl)methyl)benzonitrile], the IC50 was 0.05 to 1 µM in data set [1], 0.05 to 1 µM in data set [4], less than 0.05 µM in data set [5] and less than 0.01 µM in data set [2] (setting [6]). Moreover, the “Cell Viability MTT Assay in D-U937 cells at 4 hr” value in data set [3] is “− (− <30%)”. Further, the “Cell Viability MTT Assay in D-U937 cells at 24 hr” value in data set [3] is on record as “− (− <30%)”.
`Nc1ncnc2c1c(-c1ccc(O)cc1)nn2Cc1nc2cccc(C#CCCCNC3CCCC3)c2c(=O)n1Cc1ccccc1Cl` [Example 7, 2-((4-Amino-3-(4-hydroxyphenyl)-1H-pyrazolo[3,4-d]pyrimidin-1-yl)methyl)-3-(2-chlorobenzyl)-5-(5-(cyclopentylamino)pent-1-ynyl)quinazolin-4(3H)-one]: the IC50 in data set [1] is 0.05 to 1 µM; in data set [4], 0.05 to 1 µM; in data set [5], less than 0.05 µM; in data set [2] (setting [6]) it was less than 0.01 µM. The “Cell Viability MTT Assay in D-U937 cells at 4 hr” value in data set [3] is given as “− (− <30%)”. The “Cell Viability MTT Assay in D-U937 cells at 24 hr” value in data set [3] is on record as “− (− <30%)”.
`Nc1ncnc2c1c(-c1cccc(O)c1)nn2Cc1nc2cccc(C#CCOCCN3CCOCC3)c2c(=O)n1Cc1ccccc1Cl` [Example 8, 2-((4-Amino-3-(3-hydroxyphenyl)-1H-pyrazolo[3,4-d]pyrimidin-1-yl)methyl)-3-(2-chlorobenzyl)-5-(3-(2-morpholinoethoxy)prop-1-ynyl)quinazolin-4(3H)-one]: the IC50 was 0.05 to 1 µM in data set [1]; 0.05 to 1 µM in data set [4]; less than 0.05 µM in data set [5]; less than 0.01 µM in data set [2] (dU937, read-out: Cellular Activity IC50 values (H2O2 induced pAkt D-U937 Cells)). Besides, the “Cell Viability MTT Assay in D-U937 cells at 4 hr” value in data set [3] is “− (− <30%)”. For the same molecule, the “Cell Viability MTT Assay in D-U937 cells at 24 hr” value in data set [3] is recorded as “− (− <30%)”.
In the case of `COCC#Cc1cccc2nc(Cn3nc(-c4cccc(O)c4)c4c(N)ncnc43)n(Cc3ccc(Cl)cc3)c(=O)c12` [Example 26, 2-((4-Amino-3-(3-hydroxyphenyl)-1H-pyrazolo[3,4-d]pyrimidin-1-yl)methyl)-3-(4-chlorobenzyl)-5-(3-methoxyprop-1-ynyl)quinazolin-4(3H)-one], the IC50 in data set [1] was 0.05 to 1 µM; in data set [4] it was 0.05 to 1 µM; in data set [5] it was less than 0.05 µM; in data set [2] (setting [6]), less than 0.01 µM. Also, in data set [3], the “Cell Viability MTT Assay in D-U937 cells at 4 hr” value is reported as “− (− <30%)”. Besides, the “Cell Viability MTT Assay in D-U937 cells at 24 hr” value in data set [3] was “− (− <30%)”.
As for `COCC#Cc1cccc2nc(Cn3nc(-c4ccc(O)cc4)c4c(N)ncnc43)n(Cc3cccc(OC)c3)c(=O)c12` [Example 27, 2-((4-Amino-3-(4-hydroxyphenyl)-1H-pyrazolo[3,4-d]pyrimidin-1-yl)methyl)-3-(3-methoxybenzyl)-5-(3-methoxyprop-1-ynyl)quinazolin-4(3H)-one], the IC50 is 0.05 to 1 µM in data set [1], 0.05 to 1 µM in data set [4], less than 0.05 µM in data set [5] and less than 0.01 µM in data set [2] (setting [6]). Further, in data set [3], the “Cell Viability MTT Assay in D-U937 cells at 4 hr” value is on record as “− (− <30%)”. Further, the “Cell Viability MTT Assay in D-U937 cells at 24 hr” value in data set [3] is given as “− (− <30%)”.
Turning to `COCC#Cc1cccc2nc(Cn3nc(-c4ccc(O)cc4)c4c(N)ncnc43)n(Cc3ccccc3Cl)c(=O)c12` [Example 28, 2-((4-Amino-3-(4-hydroxyphenyl)-1H-pyrazolo[3,4-d]pyrimidin-1-yl)methyl)-3-(2-chlorobenzyl)-5-(3-methoxyprop-1-ynyl)quinazolin-4(3H)-one], the IC50 was 0.05 to 1 µM in data set [1], 0.05 to 1 µM in data set [4], less than 0.05 µM in data set [5] and less than 0.01 µM in data set [2] (setting [6]). Besides, the “Cell Viability MTT Assay in D-U937 cells at 4 hr” value in data set [3] is given as “− (− <30%)”. Further, the “Cell Viability MTT Assay in D-U937 cells at 24 hr” value in data set [3] is given as “− (− <30%)”.
Consider `C#Cc1cccc2nc(Cn3nc(-c4ccc(O)cc4)c4c(N)ncnc43)n(Cc3ccc(C(F)(F)F)cc3)c(=O)c12` [Example 29, 2-((4-Amino-3-(4-hydroxyphenyl)-1H-pyrazolo[3,4-d]pyrimidin-1-yl)methyl)-5-ethynyl-3-(4-(trifluoromethyl)benzyl)quinazolin-4(3H)-one], for which the IC50 was 0.05 to 1 µM in data set [1], 0.05 to 1 µM in data set [4], less than 0.05 µM in data set [5] and less than 0.01 µM in data set [2] (setting [6]). In addition, the “Cell Viability MTT Assay in D-U937 cells at 4 hr” value in data set [3] is “− (− <30%)”. Besides, the “Cell Viability MTT Assay in D-U937 cells at 24 hr” value in data set [3] was “− (− <30%)”.
As to `C#Cc1cccc2nc(Cn3nc(-c4ccc(O)cc4)c4c(N)ncnc43)n(Cc3ccc(Cl)cc3F)c(=O)c12` [Example 35, 2-((4-Amino-3-(4-hydroxyphenyl)-1H-pyrazolo[3,4-d]pyrimidin-1-yl)methyl)-3-(4-chloro-2-fluorobenzyl)-5-ethynylquinazolin-4(3H)-one], the IC50 was 0.05 to 1 µM in data set [1], 0.05 to 1 µM in data set [4], less than 0.05 µM in data set [5] and less than 0.01 µM in data set [2] (setting [6]). In addition, the “Cell Viability MTT Assay in D-U937 cells at 4 hr” value in data set [3] was “− (− <30%)”. Besides, the “Cell Viability MTT Assay in D-U937 cells at 24 hr” value in data set [3] is given as “− (− <30%)”.
For `CN(C)C1CCN(C(=O)CCCC#Cc2cccc3nc(Cn4nc(-c5cccc(O)c5)c5c(N)ncnc54)n(Cc4ccccc4Cl)c(=O)c23)C1` (stereo not drawn) [Example 92, 2-((4-Amino-3-(3-hydroxyphenyl)-1H-pyrazolo[3,4-d]pyrimidin-1-yl)methyl)-3-(2-chlorobenzyl)-5-(6-(3-(dimethylamino)pyrrolidin-1-yl)-6-oxohex-1-ynyl) quinazolin-4(3H)-one], the IC50 in data set [5] was less than 0.05 µM. Further, the IC50 in data set [2] (setting [6]) lay within 0.01 to 1 µM. In data set [3], the “Cell Viability MTT Assay in D-U937 cells at 4 hr” value is reported as “− (− <30%)” and the “Cell Viability MTT Assay in D-U937 cells at 24 hr” value is recorded as “− (− <30%)”.
As for `CN1CCCN(C(=O)CCCC#Cc2cccc3nc(Cn4nc(-c5cccc(O)c5)c5c(N)ncnc54)n(Cc4ccccc4Cl)c(=O)c23)CC1` [Example 94, 2-((4-Amino-3-(3-hydroxyphenyl)-1H-pyrazolo[3,4-d]pyrimidin-1-yl)methyl)-3-(2-chlorobenzyl)-5-(6-(4-methyl-1,4-diazepan-1-yl)-6-oxohex-1-ynyl)quinazolin-4(3H)-one], the IC50 in data set [5] fell in the range of 0.05 to 1 µM. For the same molecule, the half-inhibitory concentration (IC50) in data set [2] (setting [6]) was in the range of 0.01 to 1 µM. Moreover, in data set [3], the “Cell Viability MTT Assay in D-U937 cells at 4 hr” value is recorded as “− (− <30%)” and the “Cell Viability MTT Assay in D-U937 cells at 24 hr” value is recorded as “− (− <30%)”.
